Test results published in patent publication US20250376477A1, “ANALGESIC DELTA OPIOID RECEPTOR BITOPIC LIGANDS” (UNIVERSITY OF SOUTHERN CALIFORNIA, priority 2022, published 2025).

Assays:
DOR [1] = molecular target: T1, DOR (Homo sapiens, UniProt P41143); type: cell-based; conditions: for potency at DOR: BRET based Gi-1 assay / G-protein pathways; for G-protein bias: G-protein vs arrestin at DOR; for selectivity for DOR over other opioid subtypes: DOR vs KOR and MOR, BRET based Gi-1 assays
KOR = KOR (Homo sapiens, UniProt P41145); assay: BRET based Gi-1 assay, activation of KOR; type: cell-based
C57BL/6J mice [2] = assay: Seizure assay; conditions: for seizure occurrence: compared with known DOR agonists; for seizures in seizure assay: C57BL/6J mice, sc injection, C6 quino at analgesic doses
[3] = In vivo analgesia / oral activity in chronic pain models; conditions: for Orally active: oral
C57BL/6J mice [4] = assay: Respiratory depression; conditions: sc injection, morphine 10 mg/kg
C57BL/6J mice [5] = assay: Locomotor effects; conditions: sc injection, C6-quino 30 mg/kg sc
DOR [6] = molecular target: T1, DOR; type: cell-based; conditions: compared to known DOR orthosteric site binders
DOR [7] = molecular target: T2, DOR (Mus musculus, UniProt P32300); type: in vivo
T2 construct: from tissue; host or cells: living animal, central nervous system (icv dosing)

PK assays = type: in vivo
sciatic nerve ligation = assay: Mechanical allodynia induced by sciatic nerve ligation; type: in vivo
Protocol: Mechanical allodynia induced by sciatic nerve ligation was reduced between 20 and 140 minutes after treatment with 30 mg/kg C6-quino sc. Supraspinal (icv) antinociception mediated by C6 quino is DOR dependent, yet C6-quino produced no seizures (B, top).

DOR [8] = molecular target: T1, DOR; type: cell-based; conditions: compared to DPDPE and C5 quino
DOR [9] = molecular target: T1, DOR; type: cell-based; conditions: compared to DPDPE and C5 quino; remark: listed apart in the source
C57BL/6J mice [10] = assay: Rotarod assay (motor coordination); conditions: sc injection
Microsomal stability = conditions: microsomes

T1 sequence (P41143 whole entry): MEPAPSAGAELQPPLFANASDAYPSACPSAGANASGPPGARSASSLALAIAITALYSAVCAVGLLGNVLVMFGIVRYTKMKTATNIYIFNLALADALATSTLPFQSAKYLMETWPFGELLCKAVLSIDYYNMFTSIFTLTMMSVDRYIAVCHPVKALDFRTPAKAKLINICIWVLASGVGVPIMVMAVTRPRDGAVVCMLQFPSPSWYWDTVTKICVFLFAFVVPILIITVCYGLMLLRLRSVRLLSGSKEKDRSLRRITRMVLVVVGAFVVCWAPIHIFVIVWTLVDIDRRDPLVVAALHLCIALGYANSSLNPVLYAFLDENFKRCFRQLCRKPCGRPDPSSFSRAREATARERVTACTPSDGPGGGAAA
Sequence of KOR (P41145 whole entry): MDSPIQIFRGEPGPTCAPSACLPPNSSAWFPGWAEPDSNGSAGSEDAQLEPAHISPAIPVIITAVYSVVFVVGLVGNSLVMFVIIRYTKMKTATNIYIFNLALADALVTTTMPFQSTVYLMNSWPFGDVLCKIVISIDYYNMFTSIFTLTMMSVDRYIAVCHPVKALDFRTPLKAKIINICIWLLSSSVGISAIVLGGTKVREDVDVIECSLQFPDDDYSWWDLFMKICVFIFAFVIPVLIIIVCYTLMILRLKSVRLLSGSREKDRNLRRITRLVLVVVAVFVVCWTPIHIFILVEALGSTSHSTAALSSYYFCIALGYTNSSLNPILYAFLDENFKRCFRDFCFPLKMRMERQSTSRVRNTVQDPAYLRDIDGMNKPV
T2 sequence (P32300 whole entry): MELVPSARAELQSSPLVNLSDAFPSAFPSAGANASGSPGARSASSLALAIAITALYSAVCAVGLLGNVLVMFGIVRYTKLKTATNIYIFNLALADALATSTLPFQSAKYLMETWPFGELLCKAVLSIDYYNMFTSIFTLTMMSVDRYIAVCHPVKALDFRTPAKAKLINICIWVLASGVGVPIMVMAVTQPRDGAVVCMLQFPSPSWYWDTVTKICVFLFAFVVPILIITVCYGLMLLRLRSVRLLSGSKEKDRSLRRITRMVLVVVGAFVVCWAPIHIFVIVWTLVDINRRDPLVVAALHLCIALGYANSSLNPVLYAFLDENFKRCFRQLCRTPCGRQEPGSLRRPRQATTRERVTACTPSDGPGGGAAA

Structure (SMILES) | potency at DOR (DOR [1]) | activity at KOR (KOR) | G-protein bias (DOR [1]) | seizure occurrence (C57BL/6J mice [2]) | efficacy in chronic pain models [3] | Orally active [3] | seizures in seizure assay (C57BL/6J mice [2]) | respiratory depression (C57BL/6J mice [4]) | locomotor activity (C57BL/6J mice [5]) | selectivity for DOR over other opioid subtypes (DOR [1]) | functional profile (potency and efficacy) across DOR G protein subtypes and βarrestin-1 and 2 (DOR [6]) | other results
N=C(N)NCCCCCN1CC[C@]23c4c5ccc(O)c4O[C@H]2c2[nH]c4ccccc4c2C[C@@]3(O)[C@H]1C5 [C5-Indole] | high potency | retained activity |  |  |  |  |  |  |  |  |  | 
N=C(N)NCCCCCCN1CCC23c4c5ccc(O)c4O[C@H]2c2[nH]c4ccccc4c2C[C@@]3(O)C1C5 (stereo partly shown) [C6-Indole] | high potency | retained activity | G-protein biased | do not cause seizures | effective in chronic pain models | orally active |  |  |  |  |  | 
C=CCN1C[C@H](C)N([C@H](c2ccc(C(=O)N(CC)CC)cc2)c2cccc(OC)c2)C[C@H]1C [SNC80, reference compound] |  |  |  |  |  |  | caused seizures |  |  |  |  | 
CN1CC[C@]23c4c5ccc(O)c4O[C@H]2[C@@H](O)C=C[C@H]3[C@H]1C5 [Morphine, reference compound] |  |  |  |  |  |  |  | caused respiratory depression | hyperlocomotion |  |  | 
N=C(N)NCCCCCN1CCC23c4c5ccc(O)c4O[C@H]2c2nc4ccccc4cc2C[C@@]3(O)C1C5 (stereo partly shown) [C5-Quino] | high potency |  |  |  |  |  |  |  |  | selectivity for DOR over other opioid subtypes | unique functional profiling | 
N=C(N)NCCCCCCN1CCC23c4c5ccc(O)c4O[C@H]2c2nc4ccccc4cc2C[C@@]3(O)C1C5 (stereo partly shown) [C6-Quino] | high potency |  | G-protein biased | do not cause seizures | effective in chronic pain models | orally active | no seizures | did not cause significant respiratory depression | did not significantly differ from the vehicle at any time point | selectivity for DOR over other opioid subtypes | unique functional profiling | intrinsic efficacy at DOR, G-protein (DOR [1]; compared to DPDPE and C5 quino): lower intrinsic efficacy; supraspinal (icv) antinociception, receptor dependence (DOR [7]): DOR dependent; brain penetration (PK assays; PK assays): good; systemic availability (PK assays; PK assays): good; half-life (PK assays; in vivo): 2 h; anti-allodynic effect in presence of NTB (sciatic nerve ligation; antagonist NTB): antagonized by NTB; anti-allodynic activity (sciatic nerve ligation; sciatic nerve ligation, mechanical allodynia): dose- and time-dependent anti-allodynic activity similar to gabapentin; intrinsic efficacy at DOR, βarrestin-2 (DOR [8]): lower intrinsic efficacy; seizures (C57BL/6J mice [2]; FIG. 4B top): no seizures; intrinsic efficacy at DOR, βarrestin-1 (DOR [9]): lower intrinsic efficacy; Orally active ([3]; listed as 6C-Quino): YES; sedation in rotarod assay (C57BL/6J mice [10]): no propensity to cause sedation; half-life (Microsomal stability): > 2 h
